Results as given in patent US12065485B2, “Treatment of staphylococcal disorders” (priority 2013, dated 2024).
Ends that are not written are not given here. Peptide text beside a SMILES is read from it. * marks the point of attachment. For = O=C*

How the values were obtained:
[1] = test system: MCs (FSMCs, BMCMCs, MC/9 cells); assay type: cell-based, mouse; settings: in vitro; for effect on MC degranulation induced by δ-toxin: pre-treatment before δ-toxin stimulation
Experimental: Preparations of BMCMCs and fetal skin-derived mast cells (FSMCs) were previously described in Yamada, et al., J Invest Dermatol 121, 1425-1432 (2003). The purity of MCs was confirmed by surface expression of CD45 and CD117 (eBioscience).
Degranulation of MCs was assessed by β-hexosaminidase assay as previously described in Yamada, et al., J Invest Dermatol 121, 1425-1432, (2003). Briefly, MCs (2×10^6 m^−1) were preloaded with or without anti-DNP IgE (0.3 μg ml^−1) in RPMI with IL-3 for 15 hours. The cells were resuspended in Tyrode's buffer (Sigma) at 2×10^4 cells per 100 μl for FSMCs or 1×10^5 cells per 100 μl for BMCMCs and MC/9 cells, aliquoted in triplicate into a 96-well U-bottom plate and incubated with EGTA (1 mM, Sigma), LY294002 (100 μM, Sigma) and WRW4 (Trp-Arg-Trp-Trp-Trp-Trp-CONH2 (SEQ ID NO: […], American peptide) and Cyclosporine H (10 μM, Alexis Biochemicals) for 30 min, and then stimulated with DNP-HSA (30 ng ml^−1) TNP-HSA (30 nM) for 30 min, followed by exposure to Ionomycin (1 μM, Sigma) δ-toxin (indicated concentrations), PSMαs (indicated concentrations) or FPR2 ligands for 15 min. Results of various stimuli are given as a relative percentage, where freeze and thaw of total cell culture represents 100%.

FSMCs = assay type: cell-based, mouse
Experimental: In brief, FSMCs (2×10^6 m^−1) were preloaded with or without anti-DNP-IgE (0.3 g ml^−1) in RPMI with IL-3 for 15 hours. Cells were washed and loaded with Fluo-4AM (5 μM, Life Technologies) for 30 minutes. Cells were washed again and further incubated in Tyrode's buffer with or without EGTA (1 mM) for 30 minutes. DNP-HSA (30 ng ml^−1), Ionomycin (1 μM) or δ-toxin (30 μg ml^−1) were used to induce calcium flux in these cells.

MC/9 cells = assay: Viability of MCs after stimulation with synthetic PSMs (LDH release); settings: synthetic peptides
Experimental: (a) % LDH released from MC/9 cells stimulated by medium alone (Ctrl) and indicated concentrations (μg ml^−1) of PSMs for 15 or 60 minutes. […] Data represent means±s.d. of triplicate cultures. Data are representative of three independent experiments.
Because δ-toxin is highly related to PSMα2 and PSMα3, the viability of MCs after stimulation with synthetic PSMα2, PSMα3, or δ-toxin, was assessed.

[2] = test system: primary mouse macrophages and keratinocytes; assay: Cell toxicity by LDH assay in primary mouse macrophages and keratinocytes
Experimental: Cell toxicity of δ-toxin. BMCMCs, BMMφ (bone marrow derived macrophages), bone marrow neutrophils and primary keratinocytes isolated from mice were stimulated with PSMα (10 μg ml−1) or δ-toxin (10 or 100 μg ml−1) for indicated times. Cell toxicity was measured by LDH assay. Data represent means±s.d. of triplicate cultures. NS; not significant, ***P<0.001, one-way ANOVA with Tukey's post-hoc test for multiple comparisons. Data are representative of two independent experiments.

MC degranulation in vivo = assay: Passive cutaneous anaphylaxis (PCA) assay, Evans blue leakage in ear skin; settings: mice pretreated with WRW4, then S. aureus culture supernatant intradermally
Experimental: To assess whether δ-toxin induces MC degranulation in vivo, synthetic δ-toxin was injected into the skin of mouse ears and MC degranulation was monitored by the vascular leakage of Evan's blue dye into the extravascular space using the passive cutaneous anaphylaxis (PCA) assay.
Four to six weeks later, the mice were subjected to experimental PCA or epicutaneous S. aureus sensitization. […] PCA assay was performed as described, with minor modifications. […] After inoculation, 0.1 ml of 5 mg ml −1 Evans blue dye was injected intravenously. Extravasation of Evans blue dye was monitored for 30 minutes, and 4 mm of punched-out biopsies were incubated at 63° C. overnight in 200 μl formamide. Quantitative analysis of extracts was determined by measuring the absorbance at 600 nm.

| Compound | cell viability / cell death in MCs (MC/9 cells) | effect on MC degranulation induced by δ-toxin [1] | other results |
| --- | --- | --- | --- |
| LESIFRSLLFRVM [MMK1, human FPR2 ligand] |  |  | induction of MC degranulation [1]: did not induce mouse MC degranulation |
| C[C@H](CCC(=O)O)C[C@H](C)C[C@H](C)C(=O)/C=C(\O)[C@H](C)C[C@H](C)C/C=C/[C@@H](C)[C@@H](O)[C@@H](C)[C@@H](O)C[C@@H]1CC[C@@](C)([C@H]2CC[C@@](C)([C@@H](C)O)O2)O1 [ionomycin] |  |  | induction of Ca2+ influx (FSMCs): induced rapid Ca 2+ influx |
| CC[C@H](C)[C@H](NC(=O)CNC(=O)[C@H](CCSC)NC=O)C(=O)N[C@H](C(=O)N[C@@H](C)C(=O)NCC(=O)N[C@H](C(=O)N[C@H](C(=O)N[C@@H](CCCCN)C(=O)N[C@@H](Cc1ccccc1)C(=O)N[C@H](C(=O)N[C@@H](CCCCN)C(=O)NCC(=O)N[C@@H](CC(C)C)C(=O)N[C@H](C(=O)N[C@@H](CCC(=O)O)C(=O)N[C@@H](CCCCN)C(=O)N[C@@H](Cc1ccccc1)C(=O)N[C@H](C(=O)NCC(=O)N[C@@H](CCCCN)C(=O)O)[C@@H](C)O)[C@@H](C)CC)[C@@H](C)CC)[C@@H](C)CC)[C@@H](C)CC)[C@@H](C)CC [PSMα3] | induced robust loss of cell viability |  |  |
| pertussis toxin |  | partially reduced |  |
| CC[C@H](C)[C@H](NC(=O)CNC(=O)[C@H](CCSC)NC=O)C(=O)N[C@H](C(=O)N[C@@H](C)C(=O)NCC(=O)N[C@H](C(=O)N[C@H](C(=O)N[C@@H](CCCCN)C(=O)N[C@H](C(=O)N[C@H](C(=O)N[C@@H](CCCCN)C(=O)N[C@@H](CO)C(=O)N[C@@H](CC(C)C)C(=O)N[C@H](C(=O)N[C@@H](CCC(=O)O)C(=O)N[C@@H](CCC(N)=O)C(=O)N[C@@H](Cc1ccccc1)C(=O)N[C@H](C(=O)NCC(=O)N[C@@H](CCCCN)C(=O)O)[C@@H](C)O)[C@@H](C)CC)[C@@H](C)CC)C(C)C)[C@@H](C)CC)[C@@H](C)CC)[C@@H](C)CC [PSMα2] (For-MGIIAGIIKVIKSLIEQFTGK-OH) | induced robust loss of cell viability |  | cell death [2]: triggered robust cell death |
| Trp-Arg-Trp-Trp-Trp-Trp-CONH2 (WRWWWW-NH2) [WRW4] |  | inhibited MC degranulation | effect on MC degranulation induced by δ-toxin in vivo (MC degranulation in vivo): inhibited MC degranulation |
| O=C(O)CN(CCOCCOCCN(CC(=O)O)CC(=O)O)CC(=O)O [EGTA, ethylene glycol tetraacetic acid] |  | blocked MC degranulation | effect on δ-toxin-triggered Ca2+ influx (FSMCs; EGTA 1 mM): abrogated |
| CCCCC[C@H](O)/C=C/C=C\C=C\C=C\[C@@H](O)[C@@H](O)CCCC(=O)O [Lipoxin A4] |  |  | induction of MC degranulation [1]: did not induce mouse MC degranulation |
| CC[C@H](C)[C@H](NC(=O)[C@H](Cc1c[nH]c2ccccc12)NC(=O)[C@H](CCCCN)NC(=O)[C@@H](NC(=O)[C@H](CC(C)C)NC(=O)[C@H](CC(=O)O)NC(=O)CNC(=O)[C@@H](NC(=O)[C@@H](NC(=O)[C@H](CO)NC(=O)[C@@H](NC(=O)[C@@H](NC(=O)[C@H](CC(=O)O)NC(=O)[C@H](CCC(N)=O)NC(=O)[C@H](C)NC(=O)[C@@H](N)CCSC)[C@@H](C)CC)[C@@H](C)CC)[C@@H](C)O)[C@@H](C)CC)C(C)C)C(=O)N[C@H](C(=O)N[C@@H](CC(=O)O)C(=O)N[C@H](C(=O)N[C@H](C(=O)N[C@@H](CC(N)=O)C(=O)N[C@@H](CCCCN)C(=O)N[C@@H](Cc1ccccc1)C(=O)N[C@H](C(=O)N[C@@H](CCCCN)C(=O)N[C@@H](CCCCN)C(=O)O)[C@@H](C)O)C(C)C)[C@@H](C)O)[C@@H](C)CC [δ-toxin] | did not induce detectable cell death |  |  |
